Assay results reported in article PMC11693670 (Frontiers in Fungal Biology, 2024).
Ends that are not written are not given here.

Tests used:
C. neoformans = assay: Fungicidal/fungistatic tests; format: cell-based, Cryptococcus neoformans; parameters: key: Presence (+); absence (–); conditions: 5 µL plated on YPD agar, 30°C, visual inspection, six replicates
Method: Fungicidal/fungistatic tests were conducted with the four especially effective syn-enterocin peptides. C. neoformans was grown at 30°C in YPD overnight to an OD between 0.5 and 1.2 at 600 nm, then the C. neoformans culture was diluted to 10^5 and 10^3 fungal cells per well on a 96-well plate. Each well was treated with peptide at 16 µM before 5 µL per well was transferred onto YPD agar plates. Dilutions to reach desired cell counts were done in YPD. Six replicates of each peptide/dilution combination were plated. Plates were incubated at 30°C for 72 hours. Fungal growth was determined by visual inspection, with presence or absence of fungal growth being recorded (individual colonies were absent or overgrown and thus uncountable).

C. neoformans (KN99α) = conditions: 96 h
Method: C. neoformans and C. auris plates were incubated at 37°C and 5% CO2 for 96 hours after introduction of peptide and read at OD 600nm every 24 hours. […] MICs were determined for suspected positive hits against C. neoformans and C. albicans grown under the conditions previously described with approximately 500 fungal cells per well. […] C. neoformans plates were incubated at 37°C and 5% CO2 for 96 hours after introduction of peptide and read at OD 600nm every 24 hours. […] MICs were determined by approximately 50% inhibition of fungal growth, meaning that fungal growth as measured by OD was reduced 50% by peptide treatment relative to vehicle control.
Percent inhibition was calculated as the reduction
in OD at 600nm following peptide treatment relative to vehicle control. The average of six
replicates was used for each peptide concentration treatment and vehicle control.

Row | Molecule | Presence or absence of fungal growth at 72 hrs (C. neoformans; cell count 10^3, treatment 16 μM) | Presence or absence of fungal growth at 72 hrs (C. neoformans; cell count 10^5, treatment 16 μM) | MIC against C. neoformans (C. neoformans (KN99α))
1 | OC(Cn1cncn1)(Cn1cncn1)c1ccc(F)cc1F [Fluconazole] | – | – | 
2 | AGWERIAKELKKYIKKGKKVIRAAW [Peptide 32] |  |  | 2 µM
